From US20090022684A1, “Methods for hematopoietic stimulation” (priority 2006, published 2009)
Like-named read-outs stand apart in the source and are kept apart here. Positions of bridges follow the written chain, without caps; N, C: chain ends. Residues, ends and D or L forms follow the SMILES beside them.

Test: Phase I clinical trial: plasma pharmacokinetics of the peptide
Format: in vivo, human
Conditions: for Dose Proportionality Day 1 AUC(0-tlast)/Dose / Dose Proportionality Day 1 Cmax/Dose / Dose Proportionality Day 7 AUC(0-τ)/Dose / Dose Proportionality Day 7 Cmax/Dose / Tmax / Cmax / half-life / AUC(0-t) / AUC / AUC(0-inf) / Vd/F / CL/F: plasma; for Tmax / Cmax / half-life / AUC(0-t) / AUC / AUC(0-inf) / Vd/F / CL/F: human, sc; for AUC(0-t): read-out: AUC(0-tlast); for AUC: read-out: AUC(0-τ); for Vd/F: read-out: Vz/F
Description: A Phase I, single-center, randomized double blind, placebo-controlled, multiple-escalating-dose study in healthy older volunteers was carried out for the peptide [Leu^27]cyclo(Glu^22-Lys^2 1)-hPTH-(1-31)-NH2 (SEQ ID NO: 4). Subjects were healthy males and females (non-reproductive potential), aged 40 to 65 years. […] […] For each dosage level, 2 subjects (I male and I female) received placebo and 6 subjects (3 males and 3 females) received the peptide daily.
Pharmacokinetics. Plasma concentrations of the peptide were analyzed using the WinNonlin 4.0 Noncompartmental module (Pharsight Inc., Mountainview, Calif.) or equivalent. The following pharmacokinetic parameters were computed from the peptide plasma concentration-time data (See FIGS. 4 and 5): • AUC(0-tlast): The area under the plasma concentration versus time curve, from time 0 to the last measurable concentration, as calculated by the linear trapezoidal method (Day 1). • AUC(0-τ): The area under the plasma concentration versus time curve, from time 0 to the last measurable concentration, as calculated by the linear trapezoidal method (Day 7). • AUC(0-∞) or AUCinf: The area under the plasma concentration versus time curve from time 0 to infinity. AUC(0-∞) is calculated as the sum of the AUC(0-tlast) plus the ratio of the last measurable plasma concentration to the elimination rate constant (Clast/kel), where Clast is the predicted concentration at the time of the last measurable concentration, as determined by linear regression, and kel is the apparent first-order elimination rate constant (Day 1). • AUC/AUCinf: The ratio of AUC(0-tlast) to AUC(0-∞). • Cmax: Maximum measured plasma concentration over the time span specified. • Tmax: Time of the maximum measured plasma concentration. If the maximum value occurs at more than one time point, Tmax is defined as the first time point with this value. • kel: Apparent first-order terminal elimination rate constant calculated from a semi-log plot of the plasma concentration versus time curve. This parameter was calculated by linear least squares regression analysis using the maximum number of points in the terminal log-linear phase (e.g. three or more non-zero plasma concentrations). • t1/2: The apparent first-order terminal elimination half-life was calculated as 0.693/kel. • Vz/F: Apparent volume of distribution of a drug following subcutaneous administration, calculated as Dose/( AUC(0-∞)·kel), (Day 1). • CL/F: Apparent total body clearance of a drug following […], calculated as Dose/AUC(0-∞), (Day 1).
Accumulation Index: Calculated as AUC(0-τ) Day 7/AUC(0-tlast) Day 1.

[1] = both sexes, 10 ug, Day 1, 10 μg s.c., geometric mean (CV %)
[2] = both sexes, 10 ug, Day 7, 10 μg s.c. daily, geometric mean (CV %)
[3] = both sexes, 20 ug, Day 1, 20 μg s.c., geometric mean (CV %)
[4] = both sexes, 20 ug, Day 7, 20 μg s.c. daily, geometric mean (CV %)
[5] = both sexes, 40 ug, Day 1, 40 μg s.c., geometric mean (CV %)
[6] = both sexes, 40 ug, Day 7, 40 μg s.c. daily, geometric mean (CV %)
[7] = both sexes, 60 ug, Day 1, 60 μg s.c., arithmetic mean (CV %)
[8] = both sexes, 60 ug, Day 1, 60 μg s.c., geometric mean (CV %)
[9] = both sexes, 60 ug, Day 7, 60 μg s.c. daily, geometric mean (CV %)
[10] = both sexes, 80 ug, Day 1, 80 μg s.c., arithmetic mean (CV %)
[11] = both sexes, 80 ug, Day 1, 80 μg s.c., geometric mean (CV %)
[12] = both sexes, 80 ug, Day 7, 80 μg s.c. daily, geometric mean (CV %)
[13] = both sexes, 20 ug, Day 1, 20 μg s.c., n = 1
[14] = both sexes, 40 ug, Day 1, 40 μg s.c., n = 1

With `CC[C@H](C)[C@H](NC(=O)[C@H](CCC(=O)O)NC(=O)[C@H](CO)NC(=O)[C@@H](NC(=O)[C@@H](N)CO)C(C)C)C(=O)N[C@@H](CCC(N)=O)C(=O)N[C@@H](CC(C)C)C(=O)N[C@@H](CCSC)C(=O)N[C@@H](Cc1c[nH]cn1)C(=O)N[C@@H](CC(N)=O)C(=O)N[C@@H](CC(C)C)C(=O)NCC(=O)N[C@@H](CCCCN)C(=O)N[C@@H](Cc1c[nH]cn1)C(=O)N[C@@H](CC(C)C)C(=O)N[C@@H](CC(N)=O)C(=O)N[C@@H](CO)C(=O)N[C@@H](CCSC)C(=O)N[C@@H](CCC(=O)O)C(=O)N[C@@H](CCCN=C(N)N)C(=O)N[C@H](C(=O)N[C@H]1CCC(=O)NCCCC[C@@H](C(=O)N[C@@H](CC(C)C)C(=O)N[C@@H](CC(C)C)C(=O)N[C@@H](CCC(N)=O)C(=O)N[C@@H](CC(=O)O)C(=O)N[C@H](C(N)=O)C(C)C)NC(=O)[C@H](CCCN=C(N)N)NC(=O)[C@H](CC(C)C)NC(=O)[C@H](Cc2c[nH]c3ccccc23)NC1=O)C(C)C` [[Leu^27]cyclo(Glu^22-Lys^26)-hPTH-(1-31)-NH2] (H-SVSEIQLMHNLGKHLNSMERVEWLRKLLQDV-NH2; lactam 22-26) the “accumulation” value (20 μg, 60 μg and 80 μg dose levels) was “no observed accumulation”, the “Dose Proportionality Day 1 AUC(0-tlast)/Dose” value (Dose Level 10 μg) was 1.08 and the “Dose Proportionality Day 1 Cmax/Dose” value (Dose Level 10 μg) was 2.35. For the same compound, the “Dose Proportionality Day 7 AUC(0-τ)/Dose” value (Dose Level 10 μg) was 2.06, the “Dose Proportionality Day 7 Cmax/Dose” value (Dose Level 10 μg) was 3.13 and the “Dose Proportionality Day 1 AUC(0-tlast)/Dose” value (Dose Level 20 μg) was 1.10. The “Dose Proportionality Day 1 Cmax/Dose” value (Dose Level 20 μg) was 1.66, the “Dose Proportionality Day 7 AUC(0-τ)/Dose” value (Dose Level 20 μg) was 1.14 and the “Dose Proportionality Day 7 Cmax/Dose” value (Dose Level 20 μg) was 1.95. For the same compound, the “Dose Proportionality Day 1 AUC(0-tlast)/Dose” value (Dose Level 30 μg) was 3.30, the “Dose Proportionality Day 1 Cmax/Dose” value (Dose Level 30 μg) was 2.92 and the “Dose Proportionality Day 7 AUC(0-τ)/Dose” value (Dose Level 30 μg) was 3.58. For the same compound, the “Dose Proportionality Day 7 Cmax/Dose” value (Dose Level 30 μg) was 3.18, the “Dose Proportionality Day 1 AUC(0-tlast)/Dose” value (Dose Level 40 μg) was 1.89 and the “Dose Proportionality Day 1 Cmax/Dose” value (Dose Level 40 μg) was 2.68. For the same compound, the “Dose Proportionality Day 7 AUC(0-τ)/Dose” value (Dose Level 40 μg) was 2.68, the “Dose Proportionality Day 7 Cmax/Dose” value (Dose Level 40 μg) was 3.19 and the “Dose Proportionality Day 1 AUC(0-tlast)/Dose” value (Dose Level 60 μg) was 1.61. The “Dose Proportionality Day 1 Cmax/Dose” value (Dose Level 60 μg) was 1.85, the “Dose Proportionality Day 7 AUC(0-τ)/Dose” value (Dose Level 60 μg) was 1.96 and the “Dose Proportionality Day 7 Cmax/Dose” value (Dose Level 60 μg) was 2.21. For the same compound, the Tmax (both sexes, 10 ug, Day 1, 10 μg s.c., arithmetic mean (CV %)) was 15 min, the Cmax [1] was 0.0235 ng/mL and the Tmax (both sexes, 10 ug, Day 7, 10 μg s.c. daily, arithmetic mean (CV %)) was 15 min. It also gave a Cmax [2] of 0.0313 ng/mL, a Tmax (both sexes, 20 ug, Day 1, 20 μg s.c., arithmetic mean (CV %)) of 20 min and a Cmax [3] of 0.0332 ng/mL. The Tmax (both sexes, 20 ug, Day 7, 20 μg s.c. daily, arithmetic mean (CV %)) was 25 min, the Cmax [4] was 0.0391 ng/mL and the Tmax (both sexes, 40 ug, Day 1, 40 μg s.c., arithmetic mean (CV %)) was 20.3 min. For the same compound, the Cmax [5] was 0.107 ng/mL, the Tmax (both sexes, 40 ug, Day 7, 40 μg s.c. daily, arithmetic mean (CV %)) was 15 min and the Cmax [6] was 0.128 ng/mL. The Tmax [7] was 17.6 min, the Cmax [8] was 0.111 ng/mL and the Tmax (both sexes, 60 ug, Day 7, 60 μg s.c. daily, arithmetic mean (CV %)) was 15 min. For the same compound, the Cmax [9] was 0.133 ng/mL, the Tmax [10] was 24 min and the Cmax [11] was 0.234 ng/mL. The Tmax (both sexes, 80 ug, Day 7, 80 μg s.c. daily, arithmetic mean (CV %)) was 15.7 min, the Cmax [12] was 0.254 ng/mL and the half-life (both sexes, from 20 μg dose to 80 μg dose, s.c., read-out: mean t1/2 across dose groups) was 32.8 to 46.7 min. It also gave an AUC(0-t) [1] of 0.0108 ng·h/mL, an AUC [2] of 0.0206 ng·h/mL and an AUC(0-t) [3] of 0.022 ng·h/mL. For the same compound, the AUC(0-inf) [13] was 0.092 ng·h/mL, the Vd/F [13] was 171 L and the half-life (both sexes, 20 ug, Day 1, 20 μg s.c., n = 1, read-out: t½ (converted)) was 32.8 min. It also gave an AUC [4] of 0.0228 ng·h/mL, an AUC(0-t) [5] of 0.0755 ng·h/mL and an AUC(0-inf) [14] of 0.134 ng·h/mL. For the same compound, the Vd/F [14] was 247 L, the half-life (both sexes, 40 ug, Day 1, 40 μg s.c., n = 1, read-out: t½ (converted)) was 34.6 min and the AUC [6] was 0.107 ng·h/mL. It also gave a CL/F [7] of 7770 mL/min, a Vd/F [7] of 477 L and an AUC(0-inf) [8] of 0.139 ng·h/mL. For the same compound, the AUC(0-t) [8] was 0.0965 ng·h/mL, the half-life (both sexes, 60 ug, Day 1, 60 μg s.c., mean (CV %), read-out: t½ (converted)) was 41.8 min and the AUC [9] was 0.118 ng·h/mL. For the same compound, the CL/F [10] was 5230 mL/min, the Vd/F [10] was 361 L and the AUC(0-inf) [11] was 0.257 ng·h/mL. The AUC(0-t) [11] was 0.264 ng·h/mL, the half-life (both sexes, 80 ug, Day 1, 80 μg s.c., mean (CV %), read-out: t½ (converted)) was 46.7 min and the AUC [12] was 0.286 ng·h/mL. The CL/F (20 ug, Day 1, 20 μg s.c., n = 1) was 3620 mL/min, the CL/F (40 ug, Day 1, 40 μg s.c., n = 1) was 4970 mL/min and the “dose proportionality of AUC(0-∞) (Day 1), AUC(0-τ) (Day 7), Cmax (Day 1) and Cmax (Day 7)” value (increasing dose from 10 μg to 80 μg) was “dose proportional”. For the same compound, the “pharmacokinetic behavior, comparison AUC(0-τ) Day 7/AUC(0-∞) Day 1” value (once-daily subcutaneous administration for 7 days of 60 μg and 80 μg doses) was “linear”.
